The text below walks through data of patent publication US11999739B2, “Antimicrobials methods of making and using the same” (BIOVERSYS AG, priority 2016, dated 2024).

A value given as a limit tells only on which side of the number the result lay.

The test system of assay [1] is Staphylococcus aureus (S. aureus) 11540 strain. Nature of the assay: Standard microdilution MIC assay, S. aureus. In kind it is cell-based. On the procedure: (§1) The in vitro activity of the compounds of the present disclosure can be determined. Antimicrobial testing is typically performed to determine the minimum inhibitory concentration (MIC). Minimum inhibitory concentrations (MICs) are determined by the microdilution method in a final volume of 100 μl according to protocols outlined by The Clinical and Laboratory Standards Institute (CLSI). Performance standards for reference strains are assessed within the same experimental design to maintain quality control. See, for example, Clinical Laboratory Standards Institute: Methods for dilution antimicrobial susceptibility tests for bacteria that grow aerobically M7-A8. Approved Standard-Eighth Edition. Wayne, PA: CLSI; December 2008; and Clinical Laboratory Standards Institute: Performance Standards for Antimicrobial Susceptibility Testing M100-S20; Approved Standard-Twentieth Edition. Wayne, PA: CLSI; June 2010.
(§2) The compounds of the present disclosure were tested for antimicrobial activity. The Compounds 1-293 were run against Escherichia coli (E co/i) strain ATCC25922 and against Staphylococcus aureus (S. aureus) 11540 strain using a standard microdilution assay to determine minimum inhibitory concentrations (MICs). […] It will be recognized by one skilled in the art that the compounds can be assessed against other bacterial organisms and that the presentation of data for activity against Escherichia coli and Staphylococcus aureus are illustrative and in no way is intended to limit the scope of the present disclosure. The compounds of the present disclosure can be assayed against a range of other microorganisms depending upon the performance activity desired to be gathered. Furthermore, the “+” and “−” representation and the selection of a cutoff value of 16 micrograms/mL is also illustrative and in no way is intended to limit the scope of the present disclosure.
A general note: In broth dilution the organism is exposed to a series of concentrations in liquid medium.

Assay [2] relates to Escherichia coli strain ATCC25922. Nature of the assay: Standard microdilution MIC assay, E. coli. In kind it is cell-based. On the procedure:
as §1, §2

Usually MIC stands for the smallest concentration in the dilution series that meets the test's criterion for growth inhibition. Read a low MIC as a more susceptible organism. Regarding `COC[C@H](N)CCCc1cc(Cl)c(F)c(-c2cc3cn(-c4ccc([C@@H]5CCC[C@@H](CCNC(C)=N)N5)cc4)c(=O)nc3[nH]2)c1` [Compound 160], the MIC in assay [1] and in assay [2] was at most 16 µg/mL throughout.
Take `C[C@H](N)CCCc1cc(Cl)c(F)c(-c2cc3cn(-c4ccc(CN[C@H](CCNC(=N)CF)CNc5ncc[nH]5)cc4)c(=O)nc3[nH]2)c1` [Compound 21]: the MIC in assay [1] and in assay [2] was at most 16 µg/mL each time.
Regarding `COc1cc(-n2cc3cc(-c4cc(CCC[C@H](C)N)cc(Cl)c4F)[nH]c3nc2=O)cc(F)c1[C@@H]1CCC[C@@H](CCNC(C)=N)N1` [Compound 319], the MIC in assay [1] and in assay [2] was at most 16 µg/mL throughout.
For the molecule `CC(=N)NCC[C@@H]1CCC[C@@H](c2ccc(-n3cc4cc(-c5cc(CCC[C@@H](N)CF)cc(C(F)(F)F)c5)[nH]c4nc3=O)cc2OC(F)(F)F)N1` [Compound 215], the MIC in assay [1] and in assay [2] was at most 16 µg/mL each time.
Regarding `C=C[C@@H](CCNC(C)=N)NCc1ccc(-n2cc3cc(-c4cc(CCC[C@H](N)C(F)F)cc(Cl)c4F)[nH]c3nc2=O)cc1` [Compound 142], the MIC in assay [1] and in assay [2] was at most 16 µg/mL in each case.
As for `C=C[C@@H](N)CCCc1cc(Cl)c(F)c(-c2cc3cn(-c4ccc(CN[C@H](C=C)CCNC(=N)CF)cc4)c(=O)nc3[nH]2)c1` [Compound 38], the MIC in assay [1] and in assay [2] was at most 16 µg/mL each time.
For `COc1cc(-n2cc3cc(-c4cc(CCC[C@@H](N)C5CC5)cc(Cl)c4F)[nH]c3nc2=O)cc(F)c1[C@@H]1CCC[C@@H](CCNC(C)=N)N1` [Compound 321], the MIC in assay [1] and in assay [2] was at most 16 µg/mL in each case.
In the case of `CSc1cc(-n2cc3cc(-c4cc(CCC[C@H](C)N)cc(Cl)c4F)[nH]c3nc2=O)cc(F)c1[C@@H]1CCC[C@@H](CCNC(C)=N)N1` [Compound 240], the MIC in assay [1] and in assay [2] was at most 16 µg/mL throughout.
As for `CC(=N)N[C@@H](C)C[C@@H]1CCC[C@@H](c2ccc(-n3cc4cc(-c5cc(CCC[C@@H](N)C6CC6)cc(Cl)c5F)[nH]c4nc3=O)cc2)N1` [Compound 256], the MIC in assay [1] and in assay [2] was at most 16 µg/mL throughout.
With `C[C@H](N)CCCc1cc(Cl)c(F)c(-c2cc3cn(-c4ccc(CN[C@@H](CN)CCNC(=N)CF)cc4)c(=O)nc3[nH]2)c1` [Compound 20], the MIC in assay [1] and in assay [2] was at most 16 µg/mL each time.
On to `CC(=N)NCC[C@@H]1CCC[C@@H](c2ccc(-n3cc4cc(-c5cc(CCC[C@@H](N)CF)cc(C(F)(F)F)c5F)[nH]c4nc3=O)cc2OC(F)(F)F)N1` [Compound 225], for which the MIC in assay [1] and in assay [2] was at most 16 µg/mL in each case.
Consider `CC(=N)NCC[C@@H]1COC[C@@H](c2ccc(-n3cc4cc(-c5cc(CCC[C@@H](N)C(F)(F)F)cc(Cl)c5F)[nH]c4nc3=O)cc2)N1` [Compound 66], for which the MIC in assay [1] and in assay [2] was above 16 µg/mL each time.
Consider `CC(=N)NCCCN[C@@H](C)c1ccc(-n2cc3cc(-c4cc(CCC[C@H](C)N)cc(Cl)c4F)[nH]c3nc2=O)cc1F` [Compound 93], for which the MIC in assay [1] and in assay [2] was at most 16 µg/mL throughout.
On to `CSc1cc(-n2cc3cc(-c4cc(CCC[C@H](C)N)cc(C(F)(F)F)c4)[nH]c3nc2=O)cc(F)c1[C@@H]1CCC[C@@H](CCNC(C)=N)N1CCCF` [Compound 329], for which the MIC in assay [1] and in assay [2] was at most 16 µg/mL throughout.
On to `CC(=N)NCC[C@@H]1CCC[C@@H](c2ccc(-n3cc4cc(-c5cc(CCC[C@@H]6COCCN6)cc(Cl)c5F)[nH]c4nc3=O)cc2F)N1` [Compound 245], for which the MIC in assay [1] and in assay [2] was at most 16 µg/mL each time.
In the case of `C=CC(CCNC(=N)CF)NCc1ccc(-n2cc3cc(-c4cc(CCC[C@@H](N)C(F)(F)F)cc(Cl)c4F)[nH]c3nc2=O)cc1` (stereo partly drawn) [Compound 13], the MIC in assay [1] and in assay [2] was above 16 µg/mL each time.
As for `CC(=N)NCC[C@@H]1CCC[C@@H](c2c(F)cc(-n3cc4cc(-c5cc(CCC[C@@H](N)CF)cc(Cl)c5F)[nH]c4nc3=O)cc2F)N1` [Compound 279], the MIC in assay [1] and in assay [2] was at most 16 µg/mL throughout.
Turning to `CC(=N)NCC[C@@H]1CCC[C@@H](c2ccc(-n3cc4cc(-c5cc(CCC[C@H](C)N)cc(Cl)c5F)[nH]c4nc3=O)cc2)N1CCc1cccnc1` [Compound 261], the MIC in assay [1] and in assay [2] was at most 16 µg/mL each time.
On to `CSc1cc(-n2cc3cc(-c4cc(CCC[C@H](C)N)cc(Cl)c4F)[nH]c3nc2=O)ccc1[C@@H]1CCC[C@@H](CCNC(C)=N)N1CCCF` [Compound 331], for which the MIC in assay [1] and in assay [2] was at most 16 µg/mL throughout.
In the case of `CC(=N)NCC[C@@H]1CCC[C@@H](c2ccc(-n3cc4cc(-c5cc(CCC[C@H](C)N)cc(Cl)c5F)[nH]c4nc3=O)cc2Cl)N1` [Compound 175], the MIC in assay [1] and in assay [2] was at most 16 µg/mL in each case.
For `CC(=N)NCC[C@@H]1CCC[C@@H](c2ccc(-n3cc4cc(-c5cc(CCC[C@@H](N)C6CC6)cc(Cl)c5F)[nH]c4nc3=O)cc2S(C)(=O)=O)N1` [Compound 273], the MIC in assay [1] and in assay [2] was at most 16 µg/mL in each case.
For the molecule `CCCC(=N)NCC[C@@H]1CCC[C@@H](c2ccc(-n3cc4cc(-c5cc(CCC[C@H](C)N)cc(Cl)c5F)[nH]c4nc3=O)cc2SC)N1` [Compound 353], the MIC in assay [1] and in assay [2] was at most 16 µg/mL each time.
Consider `CC(=N)NCC[C@H](CO)NCc1ccc(-n2cc3cc(-c4cc(CCCC(C)(C)N)cc(Cl)c4F)[nH]c3nc2=O)cc1` [Compound 40], for which the MIC in assay [1] and in assay [2] was at most 16 µg/mL in each case.
In the case of `C[C@H](N)CCCc1cc(Cl)c(F)c(-c2cc3cn(-c4ccc(CNCCCNC(=N)CF)c(F)c4)c(=O)nc3[nH]2)c1` [Compound 77], the MIC in assay [1] and in assay [2] was at most 16 µg/mL throughout.
As to `C=C[C@@H](N)CCCc1cc(Cl)c(F)c(-c2cc3cn(-c4ccc(CNCCCNC(C)=N)c(F)c4)c(=O)nc3[nH]2)c1` [Compound 70], the MIC in assay [1] and in assay [2] was at most 16 µg/mL in each case.
For the molecule `CC(=N)NCC[C@@H]1CCC[C@@H](c2ccc(-n3cc4cc(-c5cc(CCCC(C)(C)N)cc(Cl)c5F)[nH]c4nc3=O)cc2)N1` [Compound 7], the MIC in assay [1] and in assay [2] was at most 16 µg/mL in each case.
As to `CC(=N)NCC[C@H](CO)N[C@@H](C)c1ccc(-n2cc3cc(-c4cc(CCC[C@@H](N)CF)cc(Cl)c4F)[nH]c3nc2=O)cc1F` [Compound 178], the MIC in assay [1] and in assay [2] was at most 16 µg/mL throughout.
Regarding `CC(=N)NCC[C@@H]1CCC[C@@H](c2ccc(-n3cc4cc(-c5cc(CCC[C@@H](N)CF)cc(Cl)c5F)[nH]c4nc3=O)cc2F)N1` [Compound 170], the MIC in assay [1] and in assay [2] was at most 16 µg/mL in each case.
In the case of `CC(=N)NCC[C@@H]1CCC[C@@H](c2ccc(-n3cc4cc(-c5cc(CCC[C@@H](N)C6CC6)cc(Cl)c5F)[nH]c4nc3=O)cc2C)N1` [Compound 239], the MIC in assay [1] and in assay [2] was at most 16 µg/mL throughout.
As for `C=C[C@@H](N)CCCc1cc(Cl)c(F)c(-c2cc3cn(-c4ccc(CN[C@H](C=C)CCNC(C)=N)cc4)c(=O)nc3[nH]2)c1` [Compound 31], the MIC in assay [1] and in assay [2] was at most 16 µg/mL in each case.
Turning to `CC(C)(N)CCCc1cc(Cl)c(F)c(-c2cc3cn(-c4ccc([C@@H]5CCC[C@@H](CCNC(=N)CF)N5)cc4)c(=O)nc3[nH]2)c1` [Compound 12], the MIC in assay [1] and in assay [2] was at most 16 µg/mL each time.
Consider `COC[C@H](N)CCCc1cc(-c2cc3cn(-c4ccc([C@@H]5CCC[C@@H](CCNC(C)=N)N5)c(OC)c4)c(=O)nc3[nH]2)cc(C(F)(F)F)c1` [Compound 210], for which the MIC in assay [1] and in assay [2] was at most 16 µg/mL throughout.
In the case of `CC(=N)NCCCN[C@@H](C)c1ccc(-n2cc3cc(-c4cc(CCC(F)(F)CN)cc(Cl)c4F)[nH]c3nc2=O)cc1F` [Compound 106], the MIC in assay [1] and in assay [2] was at most 16 µg/mL in each case.
Consider `COC[C@@H](CCNC(C)=N)NCc1ccc(-n2cc3cc(-c4cc(CCC[C@@H](N)CF)cc(Cl)c4F)[nH]c3nc2=O)cc1` [Compound 188], for which the MIC in assay [1] and in assay [2] was at most 16 µg/mL in each case.
Take `C[C@H](N)CCCc1cc(Cl)c(F)c(-c2cc3cn(-c4ccc([C@H](C)N[C@@H](CO)CCNC(=N)CF)cc4)c(=O)nc3[nH]2)c1` [Compound 97]: the MIC in assay [1] and in assay [2] was at most 16 µg/mL throughout.
Regarding `C=C[C@H](N)CCCc1cc(Cl)c(F)c(-c2cc3cn(-c4ccc([C@@H]5CCC[C@@H](CCNC(C)=N)N5CCCF)cc4)c(=O)nc3[nH]2)c1` [Compound 343], the MIC in assay [1] and in assay [2] was at most 16 µg/mL in each case.
With `C=C[C@@H](N)CCCc1cc(Cl)c(F)c(-c2cc3cn(-c4ccc(CN[C@@H](C=C)CCNC(=N)CF)cc4)c(=O)nc3[nH]2)c1` [Compound 37], the MIC in assay [1] and in assay [2] was at most 16 µg/mL each time.
On to `CC(=N)NCC[C@@H]1CCC[C@@H](c2c(F)cc(-n3cc4cc(-c5cc(CCC[C@@H](N)C6CC6)cc(C(F)(F)F)c5)[nH]c4nc3=O)cc2F)N1` [Compound 285], for which the MIC in assay [1] and in assay [2] was at most 16 µg/mL in each case.
Regarding `CC(=N)NCC[C@H](CO)NCc1ccc(-n2cc3cc(-c4cc(CCCC5(N)CC5)cc(Cl)c4F)[nH]c3nc2=O)cc1` [Compound 153], the MIC in assay [1] and in assay [2] was at most 16 µg/mL each time.
